Experimental findings from the NIST ThermoML archive (doi:10.1016/j.tca.2018.08.005) are described below.

Numbers after ± are expanded uncertainties.

The conditions of data set [1]: Crystal; DTA.
Data set [2] in a line: Molar enthalpy of transition or fusion. To be noted: Crystal; DSC.

For the compound `O.O.O.O.O.O.O.O.O.O.O=S(=O)([O-])[O-].[Na+].[Na+]` [sodium sulfate decahydrate], the Normal melting temperature in data set [1] turned out to be 35.00 ± 5 °C. Besides, the “Molar enthalpy of transition or fusion” value in data set [2] worked out at 18 ± 1.84 kcal/mol.
